Source: PMC10761937, “Functional engineering of human iPSC‐derived parasympathetic neurons enhances responsiveness to gastrointestinal hormones” (FEBS Open Bio, 2023)
Where no end group is shown, it is not given here.

Experiments:
HTR3A‐neurons = assay: Ca^2+ imaging, directly transduced HTR3A‐neurons; type: cell-based, human; details: 100 μM 5‐HT; HTR3A‐neurons (transduced during differentiation) day 35; Fluo‐8 AM; n = 20; Student's t‐test vs. 0 μM
Description: (§1) Before initiating differentiation, the iPSCs (1–2 × 10^5 cells·cm^−2; Cell lines and cell culture section) were transferred to 6‐well plates (Corning, Inc., Corning, NY, USA) coated with 2‐methacryloyloxyethyl phosphorylcholine (MPC) polymer (Lipidure CM5206E; NOF, Tokyo, Japan). The cells were maintained in mTeSR1 cGMP medium containing 10 μM Y‐27632 (Fujifilm Wako Pure Chemical Industries) for 2 or 3 days to form embryoid body (EBs) in a rotary shaker at 95 r.p.m. (OS‐762RC; Optime, Tokyo, Japan). Subsequently, iPSCs were differentiated into neural crest cells (NCCs), as previously reported. Briefly, NCCs were induced from Ebs using knockout serum replacement (KSR) medium and N2 medium with graded addition of nerve growth factors and signaling factors. KSR medium was composed of DMEM‐F12 (Fujifilm Wako Pure Chemical Industries), 20% KSR (Thermo Fisher Scientific), 1% NEAA, 1% monothioglycerol (Fujifilm Wako Pure Chemical Industries), and 1% P/S. N2 medium consisted of DMEM‐F12, 1% N2 supplement (Fujifilm Wako Pure Chemical Industries), 1% NEAA, and 1% P/S. When EB formation was considered day 0 of induction, the medium was changed at days 2, 5, 7, 9, and 12. […]

rat nodal ganglion cells = details: various concentrations; ref [31], [32], [33], [34]; cited from earlier work
Description: Previous reports indicate that rat nodal ganglion cells respond to various concentrations of hormones, including CCK, GLP1, PYY, and 5‐HT [31, 32, 33, 34]. […] However, it is noteworthy that the overexpression of these receptors in our model may not reconstruct natural expres ...

HTR3A = assay: Ca^2+ imaging, HTR3A‐HEK293T cells; type: cell-based, human; details: Fluo‐8 AM, Ringer's solution pH 7.4, ΔF/F 0, n = 10
Description: (§2) HEK293T cells (Lenti‐X 293T Cell line; TaKaRa, Shiga, Japan) were maintained in Dulbecco's Modified Eagle Medium (DMEM; Fujifilm Wako Pure Chemical Industries, Osaka, Japan) supplemented with 10% fetal bovine serum (Biowest, Nuaillé, France), 1% non‐essential amino acids (NEAA) (Fujifilm Wako Pure Chemical Industries), and 1% penicillin–streptomycin (P/S) (Fujifilm Wako Pure Chemical Industries) and cultured in non‐coated culture plates at 37 °C and in an incubator with 5% CO2. The culture medium was replaced every 2–3 days. At 80–90% confluence, the cell colonies were digested into single cells using TrypLE Express (Thermo Fisher Scientific). The resulting cells were used for lentiviral transfection and agonist experiments.
(§3) Figure S1 presents the protocol used for this experiment. Lentiviral vectors were acquired from VectorBuilder (VectorBuilder Japan, Inc., Kanagawa, Japan). […]
(§4) Transduced HEK293T and neurons were incubated with 10 μM Fluo‐8 AM, a calcium indicator (AAT Bioquest, Pleasanton, CA, USA), in each culture medium (Cell lines and cell culture and Induction to parasympathetic neurons sections) at 37 °C for 30 min. […] Fluorescence (excitation: 490 nm, emission: 525 nm) was detected using a confocal spinning disk confocal laser scanning unit (CSU‐W1; Yokogawa Electric, Tokyo, Japan) and an LED light (X‐Cite 120LED; Opto Science, Tokyo, Japan). […]

CCKAR = assay: Ca^2+ imaging, CCKAR‐HEK293T cells; type: cell-based, human; details: Fluo‐8 AM, Ringer's solution pH 7.4, ΔF/F 0, n = 10, Dunnett's test vs. 0 nM
Description: as §2, §3, §4

CCKAR‐neurons [1] = assay: Ca^2+ imaging, CCKAR‐neurons (iPSC‐derived); type: cell-based, human; details: 100 nM CCK‐33; CCKAR‐neurons day 35; Fluo‐8 AM; ΔF stim/F 0; n = 20; Student's t‐test vs. 0 nM
Description: as §1

CCKAR‐neurons [2] = assay: MEA recording of neuronal firing, CCKAR‐neurons; type: cell-based, human; details: 100 nM vs. 0 nM CCK‐33: P = 0.018; day 27; 0 nM n = 128 electrodes, 100 nM n = 57 electrodes; 5 min before and after ligand addition
Description: as §1

GLP2R = assay: Ca^2+ imaging, GLP2R‐HEK293T cells; type: cell-based, human; details: Fluo‐8 AM, Ringer's solution pH 7.4, ΔF/F 0, n = 20
Description: as §2, §3, §4

GLP2R‐neurons = assay: Ca^2+ imaging, directly transduced GLP2R‐neurons; type: cell-based, human; details: 100 nM GLP2; GLP2R‐neurons (transduced during differentiation) day 35; Fluo‐8 AM; n = 20
Description: as §1

NCCc1c[nH]c2ccc(O)cc12 [5‐HT, 5‐hydroxytryptamine]
Intracellular Ca^2+ concentration (HTR3A‐neurons): increased intracellular Ca^2+ concentration
Response of rat nodal ganglion cells (rat nodal ganglion cells): respond
Concentration giving response (intracellular Ca^2+ concentration) (HTR3A): > 10 µM

CCK‐8: CCK‐Octapeptide (26–33) (CCK‐8) (4100‐v; Peptide Institute, Inc.) (DYMGWMDF; ends and bridges not checked; UniProt P06307 96-103, looked up)
Concentration giving response (change in intracellular Ca^2+ concentration) (CCKAR): > 10 nM

CCK‐33: CCK‐33 (4201‐s; Peptide Institute, Inc.) (KAPSGRMSIVKNLQNLDPSHRISDRDYMGWMDF; ends and bridges not checked; UniProt P06307 71-103, looked up)
Intracellular Ca^2+ concentration (CCKAR‐neurons [1]): significantly increased the intracellular Ca^2+ concentration
Neuronal firing frequency change rate (CCKAR‐neurons [2]): significantly increased the neuronal firing frequency change rate
Concentration giving response (change in intracellular Ca^2+ concentration) (CCKAR): > 100 nM

GLP2: GLP2 (4276‐v; Peptide Institute, Inc.) (HADGSFSDEMNTILDNLAARDFINWLIQTKITD; Glucagon-like peptide 2; UniProt P01275 146-178, looked up)
Concentration giving response (Ca^2+ imaging) (GLP2R): > 100 nM
Percentage change in fluorescence intensity (GLP2R‐neurons): 3%
Response in Ca^2+ imaging (GLP2R‐neurons): responded slightly
